For orientation: MIC means the least concentration at which growth counts as inhibited. Low values mean inhibition by little substance, high ones a need for much substance.

Each structure is given as a SMILES string. Values after ≈ are worked out from the molar mass of the structure shown.

Common to all, as to type: functional
One experiment concerns Porphyromonas gingivalis. Kind of experiment: Antimicrobial activity against Porphyromonas gingivalis ATCC 33277 by disk diffusion method. (Agar diffusion results depend on both activity and mobility in agar.)
The test system of the next experiment is Prevotella intermedia. Briefly: Antimicrobial activity against Prevotella intermedia by disk diffusion method.
For another experiment, the system named is Actinomyces viscosus. Briefly: Antimicrobial activity against Actinomyces viscosus W1053 by disk diffusion method.
For another experiment, the system named is Streptococcus mutans. Briefly: Antimicrobial activity against Streptococcus mutans Ingbritt by disk diffusion method.

For the molecule `Cc1cc(=O)c2c(O)c([C@@H]3O[C@H](CO)[C@@H](O)[C@H](O)[C@H]3O)c(O)cc2o1` [BIFLORIN], the minimum inhibitory concentration (MIC) in the experiment with Porphyromonas gingivalis is 625 µg/mL (≈ 1760 µM); in the experiment with Prevotella intermedia, 625 µg/mL (≈ 1760 µM); in the experiment on Actinomyces viscosus it was over 2500 µg/mL; with Streptococcus mutans, over 2500 µg/mL.

As to `O=c1oc2c(O)c(O)cc3c(=O)oc4c(O)c(O)cc1c4c23` [ELLAGIC ACID], the MIC against Porphyromonas gingivalis, against Prevotella intermedia, against Actinomyces viscosus and against Streptococcus mutans was 1250 µg/mL (≈ 4140 µM) throughout.

`O=C(O)c1cc(O)c(O)c(O)c1` [GALLIC ACID]: the minimal inhibitory concentration (MIC) against Porphyromonas gingivalis was 156 µg/mL (≈ 917 µM); against Prevotella intermedia, 78 µg/mL (≈ 458 µM); with Actinomyces viscosus, 78 µg/mL (≈ 458 µM); against Streptococcus mutans, over 2500 µg/mL.

As for `O=c1c(O)c(-c2ccc(O)cc2)oc2cc(O)cc(O)c12` [KAEMPFEROL], the MIC against Porphyromonas gingivalis came to 20 µg/mL (≈ 69.9 µM); in the experiment on Prevotella intermedia, 20 µg/mL (≈ 69.9 µM); in the experiment with Actinomyces viscosus, 1250 µg/mL (≈ 4370 µM); in the experiment with Streptococcus mutans, 2500 µg/mL (≈ 8730 µM).

Take `O=c1c(O)c(-c2cc(O)c(O)c(O)c2)oc2cc(O)cc(O)c12` [MYRICETIN]: the minimum inhibitory concentration (MIC) with Porphyromonas gingivalis was found to be 20 µg/mL (≈ 62.8 µM); in the experiment on Prevotella intermedia, 20 µg/mL (≈ 62.8 µM); with Actinomyces viscosus, 1250 µg/mL (≈ 3930 µM); in the experiment on Streptococcus mutans, 2500 µg/mL (≈ 7860 µM).

As to `CC1(C)CC[C@]2(C(=O)O)CC[C@]3(C)C(=CC[C@@H]4[C@@]5(C)CC[C@H](O)C(C)(C)[C@@H]5CC[C@]43C)[C@@H]2C1` [OLEANOLIC_ACID], the MIC against Porphyromonas gingivalis was determined as 625 µg/mL (≈ 1370 µM); in the experiment on Prevotella intermedia it was 1250 µg/mL (≈ 2740 µM); in the experiment with Actinomyces viscosus, 625 µg/mL (≈ 1370 µM); in the experiment on Streptococcus mutans, 1250 µg/mL (≈ 2740 µM).

On to `COc1cc(O)c2c(=O)c(O)c(-c3ccc(O)cc3)oc2c1` [RHAMNOCITRIN], for which the MIC in the experiment on Porphyromonas gingivalis amounted to 625 µg/mL (≈ 2080 µM); with Prevotella intermedia it was 625 µg/mL (≈ 2080 µM); with Actinomyces viscosus it was 1250 µg/mL (≈ 4160 µM); in the experiment on Streptococcus mutans it was 1250 µg/mL (≈ 4160 µM).

Regarding `C[n+]1cc2c3c(ccc2c2ccc4cc5c(cc4c21)OCO5)OCO3` [SANGUINARIUM], the MIC was 2 µg/mL against Porphyromonas gingivalis, 2 µg/mL in the experiment on Prevotella intermedia, 15 µg/mL with Actinomyces viscosus and 15 µg/mL with Streptococcus mutans.
